The record followed here is patent US20140057901A1, “XANTHINE DERIVATIVES, THE PREPARATION THEREOF AND THEIR USE AS PHARMACEUTICAL COMPOSITIONS” (Boehringer Ingelheim Pharma GmbH & Co. KG, priority 2001, published 2014).

Usually melting point stands for the temperature, or range, at which the solid turns liquid.

For `CC(C)=CCn1c(N2CCC(CN)CC2)nc2c1c(=O)n(C)c(=O)n2C` [Example 2(105), 1,3-dimethyl-7-(3-methyl-2-buten-1-yl)-8-(4-aminomethyl-piperidin-1-yl)-xanthine], the melting point was 110 to 112 °C.
